Legend:
[1] = target: GDP-bound KRAS protein (aa 1-169), G12D and C118A; SOS-mediated nucleotide exchange (Homo sapiens (Human), UniProt P01116, C118A/G12D); test: KRAS G12D Coupled Nucleotide Exchange Assay; format: biochemical; details: 2 h compound pre-incubation, GTP, cRAF AlphaScreen
Experimental: Purified GDP-bound KRAS protein (aa 1-169), containing both G12D and C118A amino acid substitutions and an N-terminal His-tag, was pre-incubated in assay buffer (25 mM HEPES pH 7.4, 10 mM MgCl2, and 0.01% Triton X-100) with a compound dose-response titration for 2 h. Following compound pre-incubation, purified SOS protein (aa 564-1049) and GTP (Roche 10106399001) were added to the assay wells and incubated for an additional 30 min. […] The assay plates were then read on a PerkinElmer En Vision Multilabel Reader, using AlphaScreen® technology, and data were analyzed using a 4-parameter logistic model to calculate IC50 values.

[2] = target: His-tagged KRAS G12D protein (Homo sapiens (Human), UniProt P01116, G12D); test: KRAS G12D TR-FRET Assay; format: binding; details: biotinylated KRPep-2d, 10 μM GDP
Experimental: Compounds of interest were prepared in a dose-response titration in DMSO, and 80 nL were added via Labcyte Echo to each well of a 384-well plate (Perkin Elmer 6008280). The His-tagged KRAS G12D protein (Amgen) was diluted to 20 nM in Assay Buffer (20 mM HEPES, pH 7.4, 10 mM MgCl2, 50 mM NaCl, 0.1% BSA, 0.01% Tween-20, 10 μM GDP) and 2 μL was added to the appropriate wells of the 384-well plate. The plate was incubated for 30 minutes at rt. Biotinylated KRPep-2d substrate (Amgen) was diluted to […] in Assay Buffer and 2 AL was added to all wells and incubated for 1 hour at room temperature. Detection Reagent (0.4 nM LANCE Eu-W1024 Anti-6×His (Perkin Elmer AD0401), 5 nM streptavidin-d2 (Cisbio 610SADLA)) was prepared in Assay Buffer, then 4 AL was added to the plate and incubated for 1 h at rt. Plates were read using PerkinElmer En Vision (ex: 320 nm, em1: 665 nm, em2: 615 nm) and em1/em2 data was used to generate curve fits using a 4-parameter logistic model to calculate IC50 values.

[3] = tested on: Phosphorylation of ERK1/2 in AsPC-1 cells; test: Phospho-ERK1/2 MSD Assay; format: cell-based; details: Homo sapiens, ASPC1, 2 h, read-out: 2 h p-ERK (AsPC-1 cells), IC50 (μM), AsPC-1 cells, 2 h compound treatment
Experimental: AsPC-1 (ATCC® CRL-1682TM) cells were cultured in RPMI 1640 Medium (ThermoFisher Scientific 11875093) containing 10% fetal bovine serum (ThermoFisher Scientific 16000044) and 1× penicillin-streptomycin-glutamine (ThermoFisher Scientific 10378016). Sixteen hours prior to compound treatment, AsPC-1 cells were seeded in 96-well cell culture plates at a density of 25,000 cells/well and incubated at 37° C., 5% CO2. A compound dose-response titration was diluted in growth media, added to appropriate wells of a cell culture plate, and then incubated at 37° C., 5% CO2 for 2 hours. Following compound treatment, cells were washed with ice-cold Dulbecco's phosphate-buffered saline, no Ca^2+ or Mg^2+ (ThermoFisher Scientific 14190144), and then lysed in RIPA buffer (50 mM Tris-HCl pH 7.5, 1% Igepal, 0.5% sodium deoxycholate, 150 mM NaCl, and 0.5% sodium dodecyl sulfate) containing protease inhibitors (Roche 4693132001) and phosphatase inhibitors (Roche 4906837001). Phosphorylation of ERK1/2 in compound-treated lysates was assayed using Phospho-ERK1/2 Whole Cell Lysate kits (Meso Scale Discovery K151DWD) according to the manufacturer's protocol. Assay plates were read on a Meso Scale Discovery Sector Imager 6000, and data were analyzed using a 4-parameter logistic model to calculate IC50 values.

Chain of His-tagged KRAS G12D protein (P01116-2 other isoform, or with tags, fused parts or gaps G12D): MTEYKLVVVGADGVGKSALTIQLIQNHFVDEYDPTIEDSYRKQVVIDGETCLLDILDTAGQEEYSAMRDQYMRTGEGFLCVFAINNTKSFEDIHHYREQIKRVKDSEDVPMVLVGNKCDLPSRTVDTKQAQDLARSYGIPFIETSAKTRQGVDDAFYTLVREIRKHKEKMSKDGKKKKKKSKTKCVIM
Chain of GDP-bound KRAS protein (aa 1-169), G12D and C118A; SOS-mediated nucleotide exchange (P01116 other isoform, or with tags, fused parts or gaps G12D/C118A): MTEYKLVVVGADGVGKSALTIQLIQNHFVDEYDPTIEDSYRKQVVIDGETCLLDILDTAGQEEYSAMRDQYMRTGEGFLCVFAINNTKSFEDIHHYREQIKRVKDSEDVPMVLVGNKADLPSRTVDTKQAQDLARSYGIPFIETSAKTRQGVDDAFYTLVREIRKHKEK

SMILES | IC50 [1] | IC50 [2] | IC50 [3]
N#Cc1c(N)sc2c(F)ccc(-c3c(Cl)cc4c(N5CCCCC5)nc(OC[C@@]56CCCN5C[C@H](F)C6)nc4c3F)c12 [Example 26, 2-Amino-4-(6-chloro-8-fluoro-2-(((2R,7aS)-2-fluorotetrahydro-1H-pyrrolizin-7a(5H)-yl)methoxy)-4-(piperidin-1-yl)quinazolin-7-yl)-7-fluorobenzo[6] thiophene-3-carbonitrile] | 0.007 µM | 0.006 µM | 0.601 µM
N#Cc1c(N)sc2c(F)ccc(-c3c(Cl)cc4c(N5CCCCC(F)C5)nc(OC[C@@]56CCCN5C[C@H](F)C6)nc4c3F)c12 (stereo partly drawn) [Example 27, 2-Amino-4-(6-chloro-8-fluoro-4-(3-fluoroazepan-1-yl)-2-(((2R,7aS)-2-fluorotetrahydro-1H-pyrrolizin-7a(5H)-yl)methoxy)quinazolin-7-yl)-7-fluorobenzo[b] thiophene-3-carbonitrile] | 0.002 µM | 0.002 µM | 0.043 µM
N#Cc1c(N)sc2c(F)ccc(-c3c(Cl)cc4c(N5CCOC[C@H](O)C5)nc(OC[C@@]56CCCN5C[C@H](F)C6)nc4c3F)c12 [Example 30, 2-Amino-4-(6-chloro-8-fluoro-2-(((2R,7aS)-2-fluorotetrahydro-1H-pyrrolizin-7a(5H)-yl)methoxy)-4-((R)-6-hydroxy-1,4-oxazepan-4-yl)quinazolin-7-yl)-7-fluorobenzo[b] thiophene-3-carbonitrile] | 0.0008 µM | 0.0004 µM | 0.212 µM
N#Cc1c(N)sc2c(F)ccc(-c3c(Cl)cc4c(N5CCCCCCC5)nc(OC[C@@]56CCCN5C[C@H](F)C6)nc4c3F)c12 [Example 31, 2-Amino-4-(4-(azocan-1-yl)-6-chloro-8-fluoro-2-(((2R,7aS)-2-fluorotetrahydro-1H-pyrrolizin-7a(5H)-yl)methoxy)quinazolin-7-yl)-7-fluorobenzo[b] thiophene-3-carbonitrile] | 0.001 µM | 0.001 µM | 0.187 µM
N#Cc1c(N)sc2c(F)ccc(-c3c(Cl)cc4c(N5CCOC[C@@H](O)C5)nc(OC[C@@]56CCCN5C[C@H](F)C6)nc4c3F)c12 [Example 32, 2-Amino-4-(6-chloro-8-fluoro-2-(((2R,7aS)-2-fluorotetrahydro-1H-pyrrolizin-7a(5H)-yl)methoxy)-4-((S)-6-hydroxy-1,4-oxazepan-4-yl)quinazolin-7-yl)-7-fluorobenzo[b] thiophene-3-carbonitrile] | 0.002 µM | 0.002 µM | 0.079 µM
N#Cc1c(N)sc2c(F)ccc(-c3c(Cl)cc4c(N5CC6COC(C6)C5)nc(OC[C@@]56CCCN5C[C@H](F)C6)nc4c3F)c12 (stereo partly drawn) [Example 33, 4-(4-(6-Oxa-3-azabicyclo[3.2.1]octan-3-yl)-6-chloro-8-fluoro-2-(((2R,7aS)-2-fluorotetrahydro-1H-pyrrolizin-7a(5H)-yl)methoxy)quinazolin-7-yl)-2-amino-7-fluorobenzo[b] thiophene-3-carbonitrile] | 0.003 µM | 0.003 µM | 0.285 µM
N#Cc1c(N)sc2c(F)ccc(-c3c(Cl)cc4c(N5CCOCC(F)(F)C5)nc(OC[C@@]56CCCN5C[C@H](F)C6)nc4c3F)c12 [Example 34, 2-Amino-4-(6-chloro-4-(6,6-difluoro-1,4-oxazepan-4-yl)-8-fluoro-2-(((2R,7aS)-2-fluorotetrahydro-1H-pyrrolizin-7a(5H)-yl)methoxy)quinazolin-7-yl)-7-fluorobenzo[b] thiophone-3-carbonitrile] | 0.004 µM | 0.004 µM | 0.093 µM
N#Cc1c(N)sc2c(F)ccc(-c3c(Cl)cc4c(N5CCC[C@@H](O)C5)nc(OC[C@@]56CCCN5C[C@H](F)C6)nc4c3F)c12 [Example 35, 2-Amino-4-(6-chloro-8-fluoro-2-(((2R,7aS)-2-fluorotetrahydro-1H-pyrrolizin-7a(5H)-yl)methoxy)-4-((R)-3-hydroxypiperidin-1-yl)quinazolin-7-yl)-7-fluorobenzo[b] thiophene-3-carbonitrile] | 0.005 µM | 0.004 µM | 0.199 µM
N#Cc1c(N)sc2c(F)ccc(-c3c(Cl)cc4c(N5CCC[C@H](O)C5)nc(OC[C@@]56CCCN5C[C@H](F)C6)nc4c3F)c12 [Example 36, 2-Amino-4-(6-chloro-8-fluoro-2-(((2R,7aS)-2-fluorotetrahydro-1H-pyrrolizin-7a(5H)-yl)methoxy)-4-((S)-3-hydroxypiperidin-1-yl)quinazolin-7-yl)-7-fluorobenzo[b] thiophene-3-carbonitrile] | 0.006 µM | 0.005 µM | 0.205 µM

Now from value to compound:

IC50 [1] | IC50 [2] | IC50 [3] | SMILES
0.01 µM | 0.008 µM | 0.859 µM | CCC1(O)CCCN(c2nc(OC[C@@]34CCCN3C[C@H](F)C4)nc3c(F)c(-c4ccc(F)c5sc(N)c(C#N)c45)c(Cl)cc23)C1 (stereo partly drawn) [Example 37, 2-Amino-4-(6-chloro-4-(3-ethyl-3-hydroxypiperidin-1-yl)-8-fluoro-2-(((2R,7aS)-2-fluorotetrahydro-1H-pyrrolizin-7a(5H)-yl)methoxy)quinazolin-7-yl)-7-fluorobenzo[b] thiophone-3-carbonitrile]
0.01 µM | 0.01 µM | 0.781 µM | N#Cc1c(N)sc2c(F)ccc(-c3c(Cl)cc4c(N5CCCC6(CCS(=O)(=O)C6)C5)nc(OC[C@@]56CCCN5C[C@H](F)C6)nc4c3F)c12 (stereo partly drawn) [Example 38, 2-Amino-4-(6-chloro-4-(2,2-dioxido-2-thia-7-azaspiro[4.5]decan-7-yl)-8-fluoro-2-(((2R,7aS)-2-fluorotetrahydro-1H-pyrrolizin-7a(5H)-yl)methoxy)quinazolin-7-yl)-7-fluorobenzo[b] thiophene-3-carbonitrile]
0.011 µM | 0.01 µM | 0.283 µM | C[C@]1(O)CCCN(c2nc(OC[C@@]34CCCN3C[C@H](F)C4)nc3c(F)c(-c4ccc(F)c5sc(N)c(C#N)c45)c(Cl)cc23)C1 [Example 39, 2-Amino-4-(6-chloro-8-fluoro-2-(((2R,7aS)-2-fluorotetrahydro-1H-pyrrolizin-7a(5H)-yl)methoxy)-4-((S)-3-hydroxy-3-methylpiperidin-1-yl)quinazolin-7-yl)-7-fluorobenzo[b] thiophene-3-carbonitrile]
0.026 µM | 0.019 µM | 1.68 µM | N#Cc1c(N)sc2c(F)ccc(-c3c(Cl)cc4c(N5CCCC6(CC(=O)C6)C5)nc(OC[C@@]56CCCN5C[C@H](F)C6)nc4c3F)c12 [Example 40, 2-Amino-4-(6-chloro-8-fluoro-2-(((2R,7aS)-2-fluorotetrahydro-1H-pyrrolizin-7a(5H)-yl)methoxy)-4-(2-oxo-6-azaspiro[3.5]nonan-6-yl)quinazolin-7-yl)-7-fluorobenzo[b] thiophene-3-carbonitrile]
0.004 µM | 0.003 µM | 0.288 µM | C[C@@]1(O)CCCN(c2nc(OC[C@@]34CCCN3C[C@H](F)C4)nc3c(F)c(-c4ccc(F)c5sc(N)c(C#N)c45)c(Cl)cc23)C1 [Example 41, 2-Amino-4-(6-chloro-8-fluoro-2-(((2R,7aS)-2-fluorotetrahydro-1H-pyrrolizin-7a(5H)-yl)methoxy)-4-((R)-3-hydroxy-3-methylpiperidin-1-yl)quinazolin-7-yl)-7-fluorobenzo[b] thiophene-3-carbonitrile]
0.01 µM | 0.008 µM | 0.402 µM | N#Cc1c(N)sc2c(F)ccc(-c3c(Cl)cc4c(N5CCCC6(COC6)C5)nc(OC[C@@]56CCCN5C[C@H](F)C6)nc4c3F)c12 [Example 42, 2-Amino-4-(6-chloro-8-fluoro-2-(((2R,7aS)-2-fluorotetrahydro-1H-pyrrolizin-7a(5H)-yl)methoxy)-4-(2-oxa-6-azaspiro[3.5]nonan-6-yl)quinazolin-7-yl)-7-fluorobenzo[b] thiophene-3-carbonitrile]

Reference: patent US20250163064A1, “QUINAZOLINE COMPOUNDS AND USES THEREOF AS INHIBITORS OF MUTANT KRAS PROTEINS” (AMGEN INC., priority 2022, published 2025)
